Assay results: PubChem BioAssay AID248 (DTP/NCI, 2004)
“And” between values parts separate entries of the source, which are not always exact repeats. Identical values can stand only once. Inconclusive results and toxic doses are left out. Rule as the data show it: active = T/C of 150% or more; inactive = T/C below 125%.

System: L1210 leukemia ip in BDF1 mice, survival T/C
Assay: NCI In Vivo Anticancer Drug Screen. Data for tumor model L1210 Leukemia (intraperitoneal) in B6D2F1 (BDF1) mice
Conditions: endpoint: mean survival time, higher = longer survival
In short: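 Read-out is survival time, reported as the treated-group measurement over the vehicle-control measurement.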

[1] = dose: 100.0 mg/kg/injection, schedule: Q01DX009 (ip), vehicle: Klucel (hydroxypropylcellulose) (HPC)
[2] = dose: 100.0 mg/kg/injection, schedule: Q04DX003 (ip), vehicle: Klucel (hydroxypropylcellulose) (HPC)
[3] = dose: 200.0 mg/kg/injection, schedule: Q01DX009 (ip), vehicle: Klucel (hydroxypropylcellulose) (HPC)
[4] = dose: 200.0 mg/kg/injection, schedule: Q04DX003 (ip), vehicle: Klucel (hydroxypropylcellulose) (HPC)
[5] = dose: 400.0 mg/kg/injection, schedule: Q01DX009 (ip), vehicle: Klucel (hydroxypropylcellulose) (HPC)
[6] = dose: 400.0 mg/kg/injection, schedule: Q04DX003 (ip), vehicle: Klucel (hydroxypropylcellulose) (HPC)
[7] = dose: 50.0 mg/kg/injection, schedule: Q01DX009 (ip), vehicle: saline
[8] = dose: 50.0 mg/kg/injection, schedule: Q04DX003 (ip), vehicle: saline
[9] = dose: 100.0 mg/kg/injection, schedule: Q01DX009 (ip), vehicle: saline
[10] = dose: 100.0 mg/kg/injection, schedule: Q04DX003 (ip), vehicle: saline
[11] = dose: 200.0 mg/kg/injection, schedule: Q01DX009 (ip), vehicle: saline
[12] = dose: 200.0 mg/kg/injection, schedule: Q04DX003 (ip), vehicle: saline
[13] = dose: 400.0 mg/kg/injection, schedule: Q04DX003 (ip), vehicle: saline
[14] = dose: 100.0 mg/kg/injection, schedule: Q01DX001 (ip), vehicle: Klucel (hydroxypropylcellulose) (HPC)
[15] = dose: 200.0 mg/kg/injection, schedule: Q01DX001 (ip), vehicle: Klucel (hydroxypropylcellulose) (HPC)
[16] = dose: 400.0 mg/kg/injection, schedule: Q01DX001 (ip), vehicle: Klucel (hydroxypropylcellulose) (HPC)
[17] = dose: 25.0 mg/kg/injection, schedule: Q01DX009 (ip), vehicle: saline
[18] = dose: 100.0 mg/kg/injection, schedule: Q01DX001 (ip), vehicle: saline
[19] = dose: 100.0 mg/kg/injection, schedule: Q04DX002 (ip), vehicle: Klucel (hydroxypropylcellulose) (HPC)
[20] = dose: 200.0 mg/kg/injection, schedule: Q04DX002 (ip), vehicle: Klucel (hydroxypropylcellulose) (HPC)
[21] = dose: 400.0 mg/kg/injection, schedule: Q04DX002 (ip), vehicle: Klucel (hydroxypropylcellulose) (HPC)
[22] = dose: 75.0 mg/kg/injection, schedule: Q01DX001 (ip), vehicle: saline

Measured: T/C

Nc1ccc2c(c1)Cc1cc(Br)ccc1-2
inactive: [1] 103 % of control | [2] 96 % of control | [3] 101 % of control | [4] 102 % of control | [5] 101 % of control | [6] 108 % of control

CCOP(=O)(CCP(=O)(CCP(=O)(OCC)OCC)CCP(=O)(OCC)OCC)OCC
inactive: [7] 94 % of control | [8] 103 % of control | [9] 94 % of control | [10] 103 % of control | [11] 98 % of control | [12] 101 % of control | [13] 98 % of control

COc1ccc2c(c1Oc1ccc([N+](=O)[O-])cc1[N+](=O)[O-])C13CCN(C)C(C2)C1CCC1(C3)OCCO1 (stereo not given)
inactive: dose: 12.5 mg/kg/injection, schedule: Q01DX009 (ip), vehicle: Klucel (hydroxypropylcellulose) (HPC) 98 % of control | dose: 25.0 mg/kg/injection, schedule: Q01DX009 (ip), vehicle: Klucel (hydroxypropylcellulose) (HPC) 121 % of control | dose: 50.0 mg/kg/injection, schedule: Q01DX009 (ip), vehicle: Klucel (hydroxypropylcellulose) (HPC) 101 % of control | [1] 102 % of control | [3] 102 % of control | [5] 88 % of control

CCN(C(=S)c1ccc(Cl)cc1)c1cccc(C)c1
inactive: [14] 103 % of control | [2] 94 % of control | [15] 99 % of control | [4] 103 % of control | [16] 94 % of control | [6] 100 % of control

C[CH2][Ge]1([CH2]C)[CH2]CC2(CCN(CCCN(C)C)C2)C[CH2]1
inactive: dose: 4.0 mg/kg/injection, schedule: Q01DX009 (ip), vehicle: saline 95 % of control | dose: 8.0 mg/kg/injection, schedule: Q01DX009 (ip), vehicle: saline 104 % of control | dose: 16.0 mg/kg/injection, schedule: Q01DX009 (ip), vehicle: saline 102 % of control | dose: 25.0 mg/kg/injection, schedule: Q01DX001 (ip), vehicle: saline 92 % of control | [17] 104 % of control and 107 % of control | dose: 25.0 mg/kg/injection, schedule: Q04DX002 (ip), vehicle: saline 106 % of control and 111 % of control | dose: 25.0 mg/kg/injection, schedule: Q04DX003 (ip), vehicle: saline 95 % of control | dose: 32.0 mg/kg/injection, schedule: Q01DX009 (ip), vehicle: saline 104 % of control | dose: 50.0 mg/kg/injection, schedule: Q01DX001 (ip), vehicle: saline 96 % of control | [7] 98 % of control and 104 % of control | dose: 50.0 mg/kg/injection, schedule: Q04DX002 (ip), vehicle: saline 98 % of control and 109 % of control | [8] 91 % of control | dose: 64.0 mg/kg/injection, schedule: Q01DX009 (ip), vehicle: saline 104 % of control | [18] 110 % of control | [9] 88 % of control and 91 % of control and 92 % of control | [10] 95 % of control

CN(Cc1ccccc1)C(=O)C(c1ccccc1)c1ccccc1
inactive: [19] 89 % of control | [20] 86 % of control | [21] 96 % of control

CC(CN(C)N=O)C1CCC2C3CC=C4CC(O)CCC4(C)C3CCC12C (stereo not given)
inactive: dose: 100.0 mg/kg/injection, schedule: Q01DX001 (sc), vehicle: steriod suspending solution 96 % of control | dose: 200.0 mg/kg/injection, schedule: Q01DX001 (sc), vehicle: steriod suspending solution 96 % of control | dose: 400.0 mg/kg/injection, schedule: Q01DX001 (sc), vehicle: steriod suspending solution 100 % of control

Cn1c(=O)c2c(nc(OC3CCCCCC3)n2C)n(C)c1=O
inactive: dose: 50.0 mg/kg/injection, schedule: Q01DX001 (ip), vehicle: other 101 % of control | dose: 100.0 mg/kg/injection, schedule: Q01DX001 (ip), vehicle: other 93 % of control | dose: 200.0 mg/kg/injection, schedule: Q01DX001 (ip), vehicle: other 98 % of control

Nc1cccc(CNc2ccc(C(=O)O)cc2)c1
inactive: dose: 100.0 mg/kg/injection, schedule: Q01DX001 (ip), vehicle: saline with Tween-80 113 % of control | dose: 200.0 mg/kg/injection, schedule: Q01DX001 (ip), vehicle: saline with Tween-80 103 % of control | dose: 400.0 mg/kg/injection, schedule: Q01DX001 (ip), vehicle: saline with Tween-80 98 % of control

CC(C)=NNC(=O)c1ccc[n+](Cc2ccccc2)c1
inactive: [22] 102 % of control | dose: 150.0 mg/kg/injection, schedule: Q01DX001 (ip), vehicle: saline 98 % of control | dose: 300.0 mg/kg/injection, schedule: Q01DX001 (ip), vehicle: saline 105 % of control

Cc1noc(NS(=O)(=O)c2ccc(N=Nc3ccc(N)nc3N)cc2)c1C
inactive: [18] 105 % of control | dose: 200.0 mg/kg/injection, schedule: Q01DX001 (ip), vehicle: saline 98 % of control | dose: 400.0 mg/kg/injection, schedule: Q01DX001 (ip), vehicle: saline 100 % of control

CC[N+](C)(C)C1CCCCC1
inactive: [22] 94 % of control

CC(=O)Nc1cccc(Cc2ccccc2)c1
inactive: [14] 95 % of control | [2] 100 % of control | [15] 97 % of control | [4] 103 % of control | [16] 97 % of control | [6] 108 % of control

Cc1ccc([N+](=O)[O-])cc1NC(=O)N1CCCCC1C (stereo not given)
inactive: [14] 97 % of control | [1] 106 % of control and 90 % of control | [19] 97 % of control and 102 % of control | [2] 100 % of control | [15] 111 % of control | [3] 92 % of control and 97 % of control | [20] 97 % of control and 104 % of control | [4] 88 % of control | [16] 101 % of control | [5] 108 % of control and 87 % of control | [21] 93 % of control and 102 % of control | [6] 104 % of control

COc1ccc(C=NCCc2ccc(OC)c(OC)c2)cc1OC
inactive: [9] 89 % of control | [10] 102 % of control | [11] 98 % of control | [12] 97 % of control | dose: 400.0 mg/kg/injection, schedule: Q01DX009 (ip), vehicle: saline 97 % of control | [13] 105 % of control

CN(C)c1ccc2nc3c(C(=O)O)cc(=O)c(O)c-3oc2c1
inactive: dose: 50.0 mg/kg/injection, schedule: Q01DX001 (ip), vehicle: carboxymethylcellulose (CMC) 104 % of control | dose: 100.0 mg/kg/injection, schedule: Q01DX001 (ip), vehicle: carboxymethylcellulose (CMC) 101 % of control

COc1ccc(N2CSC(=S)N(c3ccc(OC)cc3)C2)cc1
inactive: [17] 96 % of control | [7] 93 % of control | [9] 95 % of control | [13] 91 % of control

CC1(O)c2cccc3c2C2(O)c4c1cccc4C(C)(O)c1cccc(c12)C3(C)O (stereo not given)
inactive: dose: 100.0 mg/kg/injection, schedule: Q01DX009 (ip), vehicle: saline with Tween-80 106 % of control | dose: 100.0 mg/kg/injection, schedule: Q04DX003 (ip), vehicle: saline with Tween-80 103 % of control and 108 % of control | dose: 200.0 mg/kg/injection, schedule: Q01DX009 (ip), vehicle: saline with Tween-80 105 % of control | dose: 200.0 mg/kg/injection, schedule: Q04DX003 (ip), vehicle: saline with Tween-80 114 % of control and 110 % of control | dose: 400.0 mg/kg/injection, schedule: Q04DX003 (ip), vehicle: saline with Tween-80 95 % of control and 101 % of control

O=c1cc(NCc2cccc([N+](=O)[O-])c2)[nH]c(=O)[nH]1
inactive: dose: 50.0 mg/kg/injection, schedule: Q01DX001 (ip), vehicle: Klucel (hydroxypropylcellulose) (HPC) 91 % of control | [14] 89 % of control | [15] 93 % of control

COc1cc2cc(-c3cc(OC)c(OC)c(OC)c3)c3c(c2cc1OC)CNC3
inactive: dose: 12.5 mg/kg/injection, schedule: Q01DX009 (ip), vehicle: water 103 % of control | dose: 25.0 mg/kg/injection, schedule: Q01DX009 (ip), vehicle: water 93 % of control | dose: 50.0 mg/kg/injection, schedule: Q01DX009 (ip), vehicle: water 97 % of control | dose: 100.0 mg/kg/injection, schedule: Q01DX009 (ip), vehicle: water 102 % of control and 86 % of control | dose: 100.0 mg/kg/injection, schedule: Q04DX003 (ip), vehicle: water 102 % of control | dose: 200.0 mg/kg/injection, schedule: Q04DX003 (ip), vehicle: water 98 % of control | dose: 400.0 mg/kg/injection, schedule: Q04DX003 (ip), vehicle: water 109 % of control
